Read-outs that look alike come from different tables or passages of the source.
Key:
Leukemia L1210 [1] = assay: Activity against Leukemia L1210, intraperitoneal, increase in life span of mice; assay type: in vivo, female mice (BDF1 family); details: for ED (maximum ILS) / ED30: Mus musculus, L1210, ip; for ED (maximum ILS): read-out: O.D. (optimum dosage); for ED30: read-out: ILS30; for Survivors after 60 days / Max. ILS % / Therapeutic ratio TR: ip; for Survivors after 60 days: 6-membered group; for Max. ILS %: 60-day observation, versus control; for Therapeutic ratio TR: O.D./ILS30
In short: (§1)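 Mice (female BDF1, 20–23 g) carrying 1×10^5 ip-implanted L1210 cells were given daily ip or oral doses for 5 days; ILS% came from mean survival over 60 days relative to controls.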

Leukemia L1210 [2] = assay: Activity against Leukemia L1210, oral, increase in life span of mice; assay type: in vivo, female mice (BDF1 family); details: for ED (maximum ILS) / ED30: Mus musculus, L1210; for ED (maximum ILS): read-out: O.D. (optimum dosage); for ED30: read-out: ILS30; for Survivors after 60 days / Max. ILS % / Therapeutic ratio TR: oral; for Survivors after 60 days: 6-membered group; for Max. ILS %: 60-day observation, versus control; for Therapeutic ratio TR: O.D./ILS30
In short: as §1

Ehrlich acites carcinoma = assay: Growth-inhibiting effect against Ehrlich acites carcinoma; assay type: in vivo, male mice; details: 5 days; for response vs control in vivo at 25 mg/kg / response vs control in vivo at 100 mg/kg: Mus musculus, Ehrlich, 120 h
In short: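 Activity graded from T/C% of total packed ascites cell volume on day 7 (treated vs untreated): - 100-66, + 65-41, ++ 40-11, +++ 10-0. Groups of 6 male mice bore 1×10^7 i.p.-implanted cells and received compound (1% Nikkol HCO-60) i.p. daily for 5 days from 24 hrs after implantation.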

[3] = Acute toxicity (LD50, Behrens-Karber method); assay type: in vivo, ICR mice; details: ip, mortality during 30 days; for LD50 at 720 h: mouse, in vivo
Description: Test compounds, dissolved or suspended in 0.5% aqueous CMC, were each intraperitoneally administered to ICR mice in a dose of 0.1 ml per 10 g body weight. LD50 (mg/kg) value of each test compound was calculated from the mortality of mice during 30 days by the Behrens-Karber method.

[4] = ip once a day for 5 successive days, daily dosage giving maximum increase of life span
[5] = ip once a day for 5 successive days, daily dosage increasing average survival days by 30%
[6] = oral once a day for 5 successive days, daily dosage giving maximum increase of life span
[7] = oral once a day for 5 successive days, daily dosage increasing average survival days by 30%
[8] = 25 mg/kg/day ip, read-out: Activity
[9] = 25 mg/kg/day ip, read-out: T/C %
[10] = 100 mg/kg/day ip, read-out: Activity
[11] = 100 mg/kg/day ip, read-out: T/C %

| Compound | ED (maximum ILS) (Leukemia L1210 [1]; [4]) [mg/kg] | ED30 (Leukemia L1210 [1]; [5]) [mg/kg] | Survivors after 60 days (Leukemia L1210 [1]) | Max. ILS % (Leukemia L1210 [1]) [%] | Therapeutic ratio TR (Leukemia L1210 [1]) | ED (maximum ILS) (Leukemia L1210 [2]; [6]) [mg/kg] | ED30 (Leukemia L1210 [2]; [7]) [mg/kg] | Survivors after 60 days (Leukemia L1210 [2]) | Max. ILS % (Leukemia L1210 [2]) [%] | Therapeutic ratio TR (Leukemia L1210 [2]) | response vs control in vivo at 25 mg/kg (Ehrlich acites carcinoma; [8]) [%] | response vs control in vivo at 25 mg/kg (Ehrlich acites carcinoma; [9]) [%] | response vs control in vivo at 100 mg/kg (Ehrlich acites carcinoma; [10]) [%] | response vs control in vivo at 100 mg/kg (Ehrlich acites carcinoma; [11]) [%] | LD50 at 720 h [3] [mg/kg] | other results |
| --- | --- | --- | --- | --- | --- | --- | --- | --- | --- | --- | --- | --- | --- | --- | --- | --- |
| COCCN(C(=O)N(CCCl)N=O)C1C(OC(C)COC)OC(CO)C(O)C1O [Compound 71, 3-(2-methoxyethyl)-3-(1-methyl-2-methoxyethyl α-D-glucopyranose-2-yl)-1-(2-chloroethyl)-1-nitrosourea] | 180 | 4.17 | 6/6 | > 700 | 43.2 | 220 | 13.1 | 4/6 | > 440 | 16.8 | 0 to 10 | 0 | 0 to 10 | 0 | 560 | – |
| CC(C)CO[C@H]1O[C@H](CN(CC2CCCO2)C(=O)N(CCCl)N=O)[C@@H](O)[C@@H](O)[C@@H]1O (stereo partly drawn) [Compound 140, 3-tetrahydrofurfuryl-3-(isobutyl α-D-altropyranose-6-yl)-1-(2-chloroethyl)-1-nitrosourea] | 180 | 2.8 | 6/6 | > 700 | 64.3 | 220 | 9.69 | 5/6 | > 620 | 22.7 | 0 to 10 | 0 | 0 to 10 | 0 | 540 | – |
| CC(C)CN(C[C@H]1O[C@H](OCC2CCCO2)[C@@H](O)[C@@H](O)[C@@H]1O)C(=O)N(CCCl)N=O (stereo partly drawn) [Compound 136, 3-(isobuty)-3-(tetrahydrofurfuryl α-D-mannopyranose-6-yl)-1-(2-chloroethyl)-1-nitrosourea] | 200 | 2.94 | 6/6 | > 700 | 68.0 | 240 | 10.1 | 5/6 | > 625 | 23.8 | 0 to 10 | 0 | 0 to 10 | 0 | 600 | – |
| CCCCO[C@H]1O[C@H](CN(CC(C)OC)C(=O)N(CCCl)N=O)[C@@H](O)[C@H](O)[C@H]1O (stereo partly drawn) [Compound 11, 3-(2-methoxy-n-propyl)-3-(n-butyl α-D-glucopyranose-6-yl)-1-(2-chloroethyl)-1-nitrosourea] | 170 | 2.9 | 6/6 | > 700 | 58.6 | 220 | 9.57 | 6/6 | > 700 | 23.0 | 0 to 10 | 0 | 0 to 10 | 0 | 495 | – |
| 3-tert-butyl-3-(methoxy-2-n-butyl β-D-glucopyranose-6-yl)-1-(2-chloroethyl)-1-nitrosourea [Compound 178] | – | – | 6/6 | > 700 | 66.5 | – | – | 5/6 | > 625 | 22.4 | – | – | – | – | – | O.D. (optimum dosage) (Leukemia L1210 [1]; [4]): 180 mg/kg; ILS30 (Leukemia L1210 [1]; [5]): 2.71 mg/kg; O.D. (optimum dosage) (Leukemia L1210 [2]; [6]): 210 mg/kg; ILS30 (Leukemia L1210 [2]; [7]): 9.38 mg/kg; Activity (Ehrlich acites carcinoma; 25 mg/kg/day ip): +++ (T/C% 10-0); T/C % (Ehrlich acites carcinoma; 25 mg/kg/day ip): 0%; Activity (Ehrlich acites carcinoma; 100 mg/kg/day ip): +++ (T/C% 10-0); T/C % (Ehrlich acites carcinoma; 100 mg/kg/day ip): 0%; LD50 [3]: 570 mg/kg |
